Reference: publication doi:10.1101/2024.08.13.607785v1 (biorxiv, 2024)
Read-outs that look alike come from different tables or passages of the source. Values belong to the molecule of their own block, whether it stands above or below them.

Key:
Test in all cases: biochemical
[1] = target: Cyclin-dependent kinase 7 ; CDK7 ; P50613 (Homo sapiens, UniProt P50613); parameters: species or system mixed lysate of K562, MV4-11, THP-1, NCI-H1155
[2] = target: Cyclin-dependent-like kinase 5 ; CDK5 ; Q00535 (Homo sapiens, UniProt Q00535); parameters: species or system mixed lysate of K562, MV4-11, THP-1, NCI-H1155
[3] = target: Epithelial discoidin domain-containing receptor 1 ; DDR1 ; Q08345 (Homo sapiens, UniProt Q08345); parameters: species or system mixed lysate of K562, MV4-11, THP-1, NCI-H1155
[4] = target: Mast/stem cell growth factor receptor Kit ; KIT ; P10721 (Homo sapiens, UniProt P10721); parameters: species or system mixed lysate of K562, MV4-11, THP-1, NCI-H1155
[5] = target: Non-receptor tyrosine-protein kinase TYK2 ; TYK2 ; P29597 (Homo sapiens, UniProt P29597); parameters: species or system mixed lysate of K562, MV4-11, THP-1, NCI-H1155
[6] = target: Calcium/calmodulin-dependent protein kinase type II subunit beta ; CAMK2B ; Q13554 (Homo sapiens, UniProt Q13554); parameters: species or system human cell line lysate
[7] = target: Citron Rho-interacting kinase ; CIT ; O14578 (Homo sapiens, UniProt O14578); parameters: species or system human cell line lysate
[8] = target: Dual specificity tyrosine-phosphorylation-regulated kinase 1A ; DYRK1A ; Q13627 (Homo sapiens, UniProt Q13627); parameters: species or system human cell line lysate
[9] = target: Inhibitor of nuclear factor kappa-B kinase subunit epsilon ; IKBKE ; Q14164 (Homo sapiens, UniProt Q14164); parameters: species or system human cell line lysate
[10] = target: Isoform 6 of Tyrosine-protein kinase ABL2 ; ABL2 ; P42684-6 (Homo sapiens, UniProt P42684); parameters: species or system human cell line lysate
[11] = target: Mitogen-activated protein kinase 3 ; MAPK3 ; P27361 (Homo sapiens, UniProt P27361); parameters: species or system human cell line lysate
[12] = target: Rho-associated protein kinase 1 ; ROCK1 ; Q13464 (Homo sapiens, UniProt Q13464); parameters: species or system human cell line lysate
[13] = target: Ribosomal protein S6 kinase alpha-5 ; RPS6KA5 ; O75582 (Homo sapiens, UniProt O75582); parameters: species or system human cell line lysate
[14] = target: Ribosomal protein S6 kinase alpha-6 ; RPS6KA6 ; Q9UK32 (Homo sapiens, UniProt Q9UK32); parameters: species or system human cell line lysate
[15] = target: Serine/threonine-protein kinase 3 ; STK3 ; Q13188 (Homo sapiens, UniProt Q13188); parameters: species or system human cell line lysate
[16] = target: Serine/threonine-protein kinase LATS1 ; LATS1 ; O95835 (Homo sapiens, UniProt O95835); parameters: species or system human cell line lysate
[17] = target: Serine/threonine-protein kinase N1 ; PKN1 ; Q16512 (Homo sapiens, UniProt Q16512); parameters: species or system human cell line lysate
[18] = target: Serine/threonine-protein kinase Nek3 ; NEK3 ; P51956 (Homo sapiens, UniProt P51956); parameters: species or system human cell line lysate
[19] = target: Serine/threonine-protein kinase TAO2 ; TAOK2 ; Q9UL54 (Homo sapiens, UniProt Q9UL54); parameters: species or system human cell line lysate
[20] = target: Tyrosine-protein kinase FRK ; FRK ; P42685 (Homo sapiens, UniProt P42685); parameters: species or system human cell line lysate
[21] = read-out: BAY-1143572 (10 µM) / %Intensity relative to DMSO
[22] = read-out: BAY-1251152 (10 µM) / %Intensity relative to DMSO

Chain of Non-receptor tyrosine-protein kinase TYK2 ; TYK2 ; P29597 (P29597 whole entry): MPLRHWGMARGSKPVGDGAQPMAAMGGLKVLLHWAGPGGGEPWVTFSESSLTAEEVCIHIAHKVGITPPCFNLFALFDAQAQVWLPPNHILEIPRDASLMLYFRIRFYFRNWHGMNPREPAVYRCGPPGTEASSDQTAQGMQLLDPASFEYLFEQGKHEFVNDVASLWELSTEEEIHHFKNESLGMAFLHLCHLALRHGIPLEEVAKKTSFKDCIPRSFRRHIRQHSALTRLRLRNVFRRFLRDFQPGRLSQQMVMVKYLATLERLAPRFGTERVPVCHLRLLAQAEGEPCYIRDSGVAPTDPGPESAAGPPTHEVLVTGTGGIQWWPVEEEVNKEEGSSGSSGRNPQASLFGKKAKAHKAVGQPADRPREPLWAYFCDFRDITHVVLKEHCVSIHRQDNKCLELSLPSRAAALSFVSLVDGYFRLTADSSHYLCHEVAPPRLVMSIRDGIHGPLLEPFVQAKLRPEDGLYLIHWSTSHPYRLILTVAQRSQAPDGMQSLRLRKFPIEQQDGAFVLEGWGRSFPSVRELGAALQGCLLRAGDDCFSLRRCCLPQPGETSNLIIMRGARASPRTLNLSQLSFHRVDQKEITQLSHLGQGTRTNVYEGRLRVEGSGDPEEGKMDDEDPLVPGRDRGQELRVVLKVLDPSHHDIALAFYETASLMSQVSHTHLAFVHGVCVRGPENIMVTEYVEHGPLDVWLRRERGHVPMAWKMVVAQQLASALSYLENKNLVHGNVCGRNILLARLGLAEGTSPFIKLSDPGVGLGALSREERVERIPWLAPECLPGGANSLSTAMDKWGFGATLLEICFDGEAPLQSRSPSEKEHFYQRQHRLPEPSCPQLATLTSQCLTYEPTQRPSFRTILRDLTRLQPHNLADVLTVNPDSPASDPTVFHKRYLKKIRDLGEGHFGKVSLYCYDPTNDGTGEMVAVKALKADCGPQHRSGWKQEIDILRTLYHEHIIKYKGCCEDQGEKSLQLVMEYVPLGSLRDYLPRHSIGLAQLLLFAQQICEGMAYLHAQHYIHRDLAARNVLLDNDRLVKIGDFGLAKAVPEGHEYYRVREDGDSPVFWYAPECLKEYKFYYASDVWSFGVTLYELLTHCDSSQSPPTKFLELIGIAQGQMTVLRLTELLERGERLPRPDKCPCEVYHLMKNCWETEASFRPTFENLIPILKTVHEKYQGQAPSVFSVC
Chain of Mast/stem cell growth factor receptor Kit ; KIT ; P10721 (P10721 whole entry, one chain of several): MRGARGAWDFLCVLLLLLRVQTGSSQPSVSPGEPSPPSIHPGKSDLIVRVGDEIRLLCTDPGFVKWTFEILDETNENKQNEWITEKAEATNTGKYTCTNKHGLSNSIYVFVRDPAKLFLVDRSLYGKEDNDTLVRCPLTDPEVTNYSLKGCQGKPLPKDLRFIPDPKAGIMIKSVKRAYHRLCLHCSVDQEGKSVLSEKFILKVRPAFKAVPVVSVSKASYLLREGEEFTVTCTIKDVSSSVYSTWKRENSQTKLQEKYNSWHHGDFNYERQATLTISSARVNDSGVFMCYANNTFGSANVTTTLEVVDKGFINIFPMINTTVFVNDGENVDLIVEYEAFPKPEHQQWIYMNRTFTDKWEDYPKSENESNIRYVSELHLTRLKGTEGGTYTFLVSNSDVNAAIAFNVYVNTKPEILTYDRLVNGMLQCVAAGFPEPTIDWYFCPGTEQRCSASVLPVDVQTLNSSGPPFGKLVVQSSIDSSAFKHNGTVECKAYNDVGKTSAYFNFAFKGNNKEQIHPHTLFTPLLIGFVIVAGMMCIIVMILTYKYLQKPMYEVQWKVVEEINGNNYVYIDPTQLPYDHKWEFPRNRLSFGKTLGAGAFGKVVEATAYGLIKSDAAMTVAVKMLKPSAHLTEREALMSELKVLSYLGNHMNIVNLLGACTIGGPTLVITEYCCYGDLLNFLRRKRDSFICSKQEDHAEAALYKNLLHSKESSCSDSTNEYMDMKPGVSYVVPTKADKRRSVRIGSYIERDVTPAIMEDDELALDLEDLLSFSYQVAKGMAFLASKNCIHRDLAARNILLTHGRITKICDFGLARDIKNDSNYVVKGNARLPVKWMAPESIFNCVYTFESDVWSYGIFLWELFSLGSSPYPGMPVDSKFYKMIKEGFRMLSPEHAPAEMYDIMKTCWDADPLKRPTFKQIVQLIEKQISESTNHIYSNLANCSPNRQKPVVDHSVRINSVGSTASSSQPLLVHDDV
Chain of Epithelial discoidin domain-containing receptor 1 ; DDR1 ; Q08345 (Q08345 whole entry, the tested form may be a part): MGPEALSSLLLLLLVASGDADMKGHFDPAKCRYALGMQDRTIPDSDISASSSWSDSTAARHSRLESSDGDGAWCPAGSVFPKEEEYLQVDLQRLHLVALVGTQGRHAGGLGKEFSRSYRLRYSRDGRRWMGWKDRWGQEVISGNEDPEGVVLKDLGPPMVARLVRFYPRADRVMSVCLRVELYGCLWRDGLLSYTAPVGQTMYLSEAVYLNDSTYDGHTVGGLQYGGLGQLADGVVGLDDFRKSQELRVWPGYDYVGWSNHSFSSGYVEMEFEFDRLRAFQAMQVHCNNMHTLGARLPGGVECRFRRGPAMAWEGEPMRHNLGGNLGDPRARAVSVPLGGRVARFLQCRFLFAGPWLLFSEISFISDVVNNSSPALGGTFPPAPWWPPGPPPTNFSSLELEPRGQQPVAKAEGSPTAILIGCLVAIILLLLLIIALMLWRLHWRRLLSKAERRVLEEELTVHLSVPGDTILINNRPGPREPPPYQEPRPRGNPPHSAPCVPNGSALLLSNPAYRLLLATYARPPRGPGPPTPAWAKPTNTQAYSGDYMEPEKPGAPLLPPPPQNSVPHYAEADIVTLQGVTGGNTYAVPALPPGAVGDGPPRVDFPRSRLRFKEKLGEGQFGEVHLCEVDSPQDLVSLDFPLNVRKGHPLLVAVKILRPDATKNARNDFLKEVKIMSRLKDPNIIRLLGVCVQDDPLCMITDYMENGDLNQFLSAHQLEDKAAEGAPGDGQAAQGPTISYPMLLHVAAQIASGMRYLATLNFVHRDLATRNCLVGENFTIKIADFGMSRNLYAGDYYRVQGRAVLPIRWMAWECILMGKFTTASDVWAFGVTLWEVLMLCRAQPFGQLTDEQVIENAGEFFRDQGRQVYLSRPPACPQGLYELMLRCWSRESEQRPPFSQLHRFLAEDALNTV
Chain of Inhibitor of nuclear factor kappa-B kinase subunit epsilon ; IKBKE ; Q14164 (Q14164 whole entry, canonical isoform, one chain of several): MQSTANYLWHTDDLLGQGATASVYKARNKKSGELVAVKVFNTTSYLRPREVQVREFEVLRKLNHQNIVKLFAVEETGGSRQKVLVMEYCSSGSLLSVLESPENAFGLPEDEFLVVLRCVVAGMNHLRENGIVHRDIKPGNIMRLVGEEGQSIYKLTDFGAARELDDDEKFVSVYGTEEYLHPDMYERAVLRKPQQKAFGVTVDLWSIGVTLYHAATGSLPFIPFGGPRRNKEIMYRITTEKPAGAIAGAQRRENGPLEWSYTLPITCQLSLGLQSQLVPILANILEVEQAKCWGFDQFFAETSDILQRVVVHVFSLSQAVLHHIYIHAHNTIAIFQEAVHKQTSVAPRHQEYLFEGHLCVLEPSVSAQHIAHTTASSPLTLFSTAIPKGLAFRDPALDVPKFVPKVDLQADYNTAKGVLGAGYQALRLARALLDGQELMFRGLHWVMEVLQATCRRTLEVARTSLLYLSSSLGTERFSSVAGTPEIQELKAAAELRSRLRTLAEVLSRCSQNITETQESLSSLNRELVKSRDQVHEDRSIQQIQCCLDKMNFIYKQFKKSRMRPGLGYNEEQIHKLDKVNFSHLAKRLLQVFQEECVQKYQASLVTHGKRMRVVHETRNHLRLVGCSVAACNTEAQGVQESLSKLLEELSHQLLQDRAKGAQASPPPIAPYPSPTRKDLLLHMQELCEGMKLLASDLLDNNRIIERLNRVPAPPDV
Chain of Ribosomal protein S6 kinase alpha-6 ; RPS6KA6 ; Q9UK32 (Q9UK32 whole entry): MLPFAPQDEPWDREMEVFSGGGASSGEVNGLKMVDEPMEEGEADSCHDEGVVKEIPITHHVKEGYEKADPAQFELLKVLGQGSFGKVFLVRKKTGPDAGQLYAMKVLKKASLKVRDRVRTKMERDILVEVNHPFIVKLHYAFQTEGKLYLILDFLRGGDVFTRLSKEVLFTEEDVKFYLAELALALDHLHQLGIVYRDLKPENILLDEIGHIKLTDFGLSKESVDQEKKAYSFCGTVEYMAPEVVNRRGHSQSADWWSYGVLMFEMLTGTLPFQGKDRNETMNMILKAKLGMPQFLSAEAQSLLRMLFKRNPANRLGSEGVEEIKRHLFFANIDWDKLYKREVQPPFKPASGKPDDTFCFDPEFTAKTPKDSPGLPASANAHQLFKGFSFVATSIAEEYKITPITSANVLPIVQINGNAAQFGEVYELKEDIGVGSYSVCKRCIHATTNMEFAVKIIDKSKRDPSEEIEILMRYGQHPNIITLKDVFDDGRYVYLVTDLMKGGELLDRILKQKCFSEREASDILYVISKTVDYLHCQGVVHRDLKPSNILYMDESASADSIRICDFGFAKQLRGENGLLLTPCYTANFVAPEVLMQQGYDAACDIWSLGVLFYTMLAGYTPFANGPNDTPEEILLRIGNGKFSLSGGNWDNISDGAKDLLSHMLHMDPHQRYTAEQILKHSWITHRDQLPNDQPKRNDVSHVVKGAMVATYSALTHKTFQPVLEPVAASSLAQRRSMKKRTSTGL
Chain of Mitogen-activated protein kinase 3 ; MAPK3 ; P27361 (P27361 whole entry): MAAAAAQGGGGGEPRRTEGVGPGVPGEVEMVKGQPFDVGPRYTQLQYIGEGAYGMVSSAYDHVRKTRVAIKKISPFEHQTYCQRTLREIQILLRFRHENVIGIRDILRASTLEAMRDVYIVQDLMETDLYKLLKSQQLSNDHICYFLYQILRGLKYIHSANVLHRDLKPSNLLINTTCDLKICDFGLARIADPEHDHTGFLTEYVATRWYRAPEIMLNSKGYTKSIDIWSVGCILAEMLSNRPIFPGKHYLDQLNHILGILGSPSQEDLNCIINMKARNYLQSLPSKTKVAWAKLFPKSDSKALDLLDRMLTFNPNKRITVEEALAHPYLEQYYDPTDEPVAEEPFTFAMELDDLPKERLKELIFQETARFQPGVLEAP

remaining activity at 10 µM [1, 21]: 117%
remaining activity at 10 µM [2, 21]: 83.6%
remaining activity at 10 µM [3, 21]: 56%
remaining activity at 10 µM [4, 21]: 24.3%
remaining activity at 10 µM [5, 21]: 27.1%
remaining activity at 10 µM [6, 21]: 105%
remaining activity at 10 µM [7, 21]: 99.8%
remaining activity at 10 µM [8, 21]: 76.3%
remaining activity at 10 µM [9, 21]: 110%
remaining activity at 10 µM [10, 21]: 59.1%
remaining activity at 10 µM [11, 21]: 104%
remaining activity at 10 µM [12, 21]: 114%
remaining activity at 10 µM [13, 21]: 109%
remaining activity at 10 µM [14, 21]: 133%
remaining activity at 10 µM [15, 21]: 103%
remaining activity at 10 µM [16, 21]: 118%
remaining activity at 10 µM [17, 21]: 156%
remaining activity at 10 µM [18, 21]: 88.7%
remaining activity at 10 µM [19, 21]: 80.7%
remaining activity at 10 µM [20, 21]: 125%
Structure (SMILES): COc1cc(F)ccc1-c1ncnc(Nc2cccc(C[S@](C)(=N)=O)c2)n1 [BAY-1143572]

remaining activity at 10 µM [1, 22]: 110%
remaining activity at 10 µM [2, 22]: 84.7%
remaining activity at 10 µM [3, 22]: 48.9%
remaining activity at 10 µM [4, 22]: 102%
remaining activity at 10 µM [5, 22]: 89.6%
remaining activity at 10 µM [6, 22]: 98.2%
remaining activity at 10 µM [7, 22]: 92.5%
remaining activity at 10 µM [8, 22]: 60.2%
remaining activity at 10 µM [9, 22]: 112%
remaining activity at 10 µM [10, 22]: 69.2%
remaining activity at 10 µM [11, 22]: 96.8%
remaining activity at 10 µM [12, 22]: 110%
remaining activity at 10 µM [13, 22]: 110%
remaining activity at 10 µM [14, 22]: 118%
remaining activity at 10 µM [15, 22]: 91.9%
remaining activity at 10 µM [16, 22]: 114%
remaining activity at 10 µM [17, 22]: 137%
remaining activity at 10 µM [18, 22]: 112%
remaining activity at 10 µM [19, 22]: 56%
remaining activity at 10 µM [20, 22]: 123%
Structure (SMILES): COc1cc(F)ccc1-c1cc(Nc2cc(CS(C)(=N)=O)ccn2)ncc1F (stereo not shown) [BAY-1251152]
